{"source": "patent US20220304992A1", "about": "“METHODS OF REJUVENATING AGED TISSUE BY INHIBITING 15-HYDROXYPROSTAGLANDIN DEHYDROGENASE (15-PGDH)” (The Board of Trustees of the Leland Stanford Junior …, priority 2019, published 2022)", "key": {"[1]": {"tested_on": "PGE2 and PGD2 levels in muscle tissue", "assay": "LC-MS/MS of prostaglandins in muscle tissue lysates", "type": "in vivo, mouse", "conditions": "aged mice, daily i.p., 1 month", "description": "All prostaglandin standards-PGF2a; PGE2; PGD2; 15-keto PGE2; 13,14-dihydro 15-keto PGE2; PGE2-D4; and PGF2α-D9—were purchased from Cayman Chemical. For the PGE2-D4 internal standard, positions 3 and 4 were labeled with a total of four deuterium atoms. For PGF2α-D9, positions 17, 18, 19 and 20 were labeled with a total of nine deuterium atoms.\nAnalyte stock solutions (5 mg/mL) were prepared in DMSO. These stock solutions were serially diluted with acetonitrile/water (1:1 v/v) to obtain a series of standard working solutions, which were used to generate the calibration curve. […]\nSolid tissues were harvested, weighed, and snap-frozen with liquid nitrogen. […] The dry residue was reconstituted in 100 μL acetonitrile/10 mM ammonium acetate (2:8 v/v) and analyzed by LC-MS/MS.\nSince many prostaglandins are positional isomers with identical masses and have similar fragmentation patterns, chromatographic separation is critical. Two SRM transitions-one quantifier and one qualifier-were carefully selected for each analyte. […]\nQuantitative analysis was done using LabSolutions LCMS (Shimadzu). An internal standard method was used for quantification: PGE2-D4 was used as an internal standard for quantification of PGE2, 15-keto PGE2, and 13, 14-dihydro 15-keto PGE2. […]"}, "[2]": {"tested_on": "15-PGDH overexpressing young muscles", "type": "in vivo, mouse", "quoted_text": "Middle aged (18-20 mo.) and aged (>24 mo.) mice C57BL/6 were obtained the US National Institute on Aging (NIA) for aged muscle studies, and young (2-4 mo.) wild-type C57BL/6 mice from Jackson Laboratory. […] Time and distance to exhaustion was performed as previously described (4) for SW-treated mice and their controls.\nOverexpression of Hpgd (15-PGDH) was achieved by integrating AAV9 under CMV promoter and with eGFP under IRES (AA9-CMV-m-HPGD-IRES-eGFP) (Vector Biolabs). The control virus was AAV9-tMCK-eGFP-WPRE.\nThe peak isometric torque (N·mm) of the ankle plantarflexors was assessed as previously described (21, 22). Briefly, the foot of anesthetized mice was placed on a footplate attached to a servomotor (model 300C-LR; Aurora Scientific). Two Pt-Ir electrode needles (Aurora Scientific) were inserted percutaneously and subcutaneously over the tibial nerve, just posterior/posterior-medial to the knee. The ankle joint was secured at a 90° angle. The peak isometric torque was achieved by varying the current delivered to the tibial nerve at a frequency of 200 Hz and a 0.1—ms square wave pulse. We performed three tetanic measurements on each muscle, with 1 min recovery between each measurement. Data were collected with the Aurora Scientific Dynamic Muscle Data Acquisition and Analysis Software."}, "[3]": {"conditions": "15-PGDH overexpressing young muscles, daily i.p."}}, "note": "Entries after “also recorded” stand apart in the source; their conditions may differ.", "data": [{"smiles": "CCCC[S+]([O-])c1sc2nc(-c3cccs3)cc(-c3ccccc3)c2c1N", "note": "(centres unmarked) [SW033291, 2-(butylsulfinyl)-4-phenyl-6-(thiophen-2-yl)thieno[2,3-b]pyridin-3-amine]", "values": [{"measurement": "PGD2 levels in muscle", "setting": "[1]", "result": "increase"}, {"measurement": "PGE2 levels in muscle", "setting": "[1]; listed as SW", "result": "elevated; also recorded: increase"}, {"measurement": "mass of TA muscle", "setting": "[2]; [3]", "result": "increased"}, {"measurement": "strength (plantar flexion tetanic force)", "setting": "[2]; [3]", "result": "increased"}, {"measurement": "muscle atrophy induced by overexpression of 15-PGDH", "setting": "[2]; young mice", "result": "rescued"}]}]}
